# Measured values taken from patent publication US20250340537A1, “PHARMACEUTICALLY ACTIVE COMPOUNDS, COMPOSITIONS, AND METHODS FOR MODULATING PENDRIN” (ARBORMED Co., Ltd., priority 2022, published 2025).
# Target: T1, H723R-pendrin (Homo sapiens, UniProt O43511, H723R)
# T1 construct: expressed in transfected cells; host or cells: PANC-1
# T1 sequence (O43511 1-780 H723R): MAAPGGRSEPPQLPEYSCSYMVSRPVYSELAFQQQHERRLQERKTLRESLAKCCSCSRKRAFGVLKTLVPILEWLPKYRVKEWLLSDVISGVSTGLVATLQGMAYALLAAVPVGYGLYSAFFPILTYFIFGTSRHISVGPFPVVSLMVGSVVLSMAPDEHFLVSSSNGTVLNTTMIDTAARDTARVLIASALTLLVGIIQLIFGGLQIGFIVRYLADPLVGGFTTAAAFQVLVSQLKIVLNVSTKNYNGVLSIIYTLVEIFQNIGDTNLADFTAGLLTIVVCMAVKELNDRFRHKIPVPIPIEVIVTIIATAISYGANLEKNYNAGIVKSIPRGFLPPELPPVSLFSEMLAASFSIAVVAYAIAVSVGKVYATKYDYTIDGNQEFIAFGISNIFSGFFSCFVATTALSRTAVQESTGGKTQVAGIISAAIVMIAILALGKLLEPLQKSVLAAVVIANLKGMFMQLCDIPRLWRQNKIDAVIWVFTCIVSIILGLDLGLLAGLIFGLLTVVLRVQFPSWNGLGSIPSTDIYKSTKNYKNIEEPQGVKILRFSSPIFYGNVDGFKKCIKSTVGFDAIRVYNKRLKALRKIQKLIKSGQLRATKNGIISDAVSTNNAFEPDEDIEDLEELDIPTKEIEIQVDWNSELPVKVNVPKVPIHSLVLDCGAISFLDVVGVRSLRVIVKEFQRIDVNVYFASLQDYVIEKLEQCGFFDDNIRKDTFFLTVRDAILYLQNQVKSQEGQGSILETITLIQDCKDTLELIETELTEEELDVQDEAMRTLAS
# Experiment: YFP fluorescence quenching assay (Cl−/I− exchange activity of pendrin)
# Type: cell-based
# Conditions: PANC-1 cells stably expressing human H723R-pendrin and YFP-F46L/H148Q/I152L; compound incubation 20-24 hours; iodide influx
# Description: Halide sensor YFP F46L/H148Q/I152L is quenched by halide ion like Iodide. When such YFP is expressed in a cell, it expresses in the cytoplasm.
# To measure H723R-PDS activity, PANC-1 cells were stably transfected with halide sensors YFP-F46L/H148Q/I152L and H723R-PDS which has problems with membrane trafficking due to misfolding.
# If the cell-treated drug is a corrector for H723R-PDS, H723R-PDS will translocate normally to the plasma membrane.
# At this time, when treated with a high-concentration iodide solution outside the cell, iodide enters the cell due to the Cl−/I− exchange activity of pendrin, and the fluorescence of the halide sensor YFP decreases.
# PANC-1 cells were cultured in Dulbecco's Modified Eagle's Medium with 10% fetal bovine serum, 2 mM glutamine, 100 units/ml penicillin and 100 µg/ml streptomycin. For high-throughput screening, PANC-1 cells were stably transfected with human H723R-pendrin and halide sensor YFP-F46L/H148Q/I152L.
# PANC-1 cells expressing human H723R-pendrin and YFP-F46L/H148Q/I152L were plated in 96-well microplates at a density of 2×10^4 cells per well and grown for 20-24 hours at 37° C. (90% humidity 5% CO2). Then these cells were treated with 50 μl growth medium containing test compounds and incubated for 20-24 hours. For YFP quenching assay, each well of the 96-well plate was washed 2 times with 200 μl of PBS, and it was filled with 50 μl of HEPES-buffered solution (140 mM NaCl, 5 mM KCl, 1 mM MgCl2, 1 mM CaCl2, 10 mM D-glucose, 10 mM HEPES; pH 7.4 with NaOH). After 10 minutes of incubation at 37° C., the 96-well plate was moved on the FLUOstar Omega Microplate Reader (BMG Labtech, Ortenberg, Germany) for a fluorescence assay. Each well was assayed individually for H723R-pendrin mediated I^− influx by recording fluorescence (495±15 nm excitation, 520±20 nm emission) every 400 ms for 1 second (baseline). Then, 50 μL of NaI-substituted HEPES-buffered solution (NaI replacing NaCl) was added using a liquid injector at 1 second and YFP fluorescence was recorded every 400 ms for 10 seconds. The initial iodide influx rate was determined from the initial slope of fluorescence by nonlinear regression, after the infusion of iodide.
# It is indicated as EC50 with the following key: A=EC50 less than 5 uM; B=EC50 greater than 5 uM, but less than 10 uM; C=EC50 greater than 10 uM.
compound,measurement,value
NC1=C(c2cc(-c3ccc(O)c(O)c3)ncn2)C(=O)CN1c1ccccc1Cl [Compound 72],EC50,> 10 µM
NC1=C(c2nccc(-c3ccc(O)c(O)c3)n2)C(=O)CN1c1ccccc1F [Compound 74],EC50,> 10 µM
COc1ccc(-c2cccc(C3=C(N)N(c4ccccc4Cl)CC3=O)n2)cc1OC [Compound 75],EC50,> 10 µM
NC1=C(c2cccc(-c3ccc(O)c(O)c3)n2)C(=O)CN1c1ccccc1Cl [Compound 76],EC50,> 10 µM
COc1ccc(-c2nccc(C3=C(N)N(CC4CCCC4)CC3=O)n2)cc1OC [Compound 77],EC50,> 10 µM
NC1=C(c2cncc(-c3ccc(O)c(O)c3)n2)C(=O)CN1c1ccccc1F [Compound 78],EC50,< 5 µM
NC1=C(c2ccnc(-c3ccc(O)c(O)c3)n2)C(=O)CN1CC1CCCC1 [Compound 79],EC50,< 5 µM
COc1ccc(-c2cccc(C3=C(N)N(CC4CCCC4)CC3=O)n2)cc1OC [Compound 80],EC50,> 10 µM
NC1=C(c2cccc(-c3ccc(O)c(O)c3)n2)C(=O)CN1CC1CCCC1 [Compound 81],EC50,< 5 µM
COc1ccc(-c2ccnc(C3=C(N)N(CC4CCNC4)CC3=O)n2)cc1OC (centres unmarked) [Compound 82],EC50,> 10 µM
NC1=C(c2nccc(-c3ccc(O)c(O)c3)n2)C(=O)CN1CC1CCNC1 (centres unmarked) [Compound 83],EC50,> 10 µM
COc1ccc(-c2ccnc(C3=C(N)N(CC4CCOC4)CC3=O)n2)cc1OC (centres unmarked) [Compound 84],EC50,> 10 µM
COc1ccc(-c2cccc(C3=C(N)N(CC4CCNC4)CC3=O)n2)cc1OC (centres unmarked) [Compound 85],EC50,> 10 µM
NC1=C(c2cccc(-c3ccc(O)c(O)c3)n2)C(=O)CN1CC1CCNC1 (centres unmarked) [Compound 86],EC50,> 10 µM
COc1ccc(-c2cccc(C3=C(N)N(CC4CCOC4)CC3=O)n2)cc1OC (centres unmarked) [Compound 87],EC50,5 to 10 µM
COc1ccc(-c2cncc(C3=C(N)N(CCC(F)(F)F)CC3=O)c2)cc1OC [Compound 88],EC50,> 10 µM
NC1=C(c2cncc(-c3ccc(O)c(OC4CNC4)c3)n2)C(=O)CN1CC1CCCC1 [Compound 89],EC50,> 10 µM
COc1cc(-c2cncc(C3=C(N)N(CC4CCNC4)CC3=O)c2)ccc1O (centres unmarked) [Compound 90],EC50,> 10 µM
COc1cc(-c2cncc(C3=C(N)N(CC4CCOC4)CC3=O)c2)ccc1O (centres unmarked) [Compound 91],EC50,> 10 µM
NC1=C(c2cccc(-c3ccc(O)c(O)c3)n2)C(=O)CN1c1ccccc1F [Compound 92],EC50,5 to 10 µM
COc1ccc(-c2cccc(C3=C(N)N(CCC(F)(F)F)CC3=O)n2)cc1OC [Compound 93],EC50,> 10 µM
NC1=C(c2cccc(-c3ccc(O)c(O)c3)n2)C(=O)CN1CCC(F)(F)F [Compound 94],EC50,> 10 µM
NC1=C(c2cncc(-c3ccc(O)c(O)c3)c2)C(=O)CN1CCC(F)(F)F [Compound 95],EC50,> 10 µM
COc1ccc(-c2ccnc(C3=C(N)N(CCC(F)(F)F)CC3=O)n2)cc1OC [Compound 96],EC50,> 10 µM
NC1=C(c2nccc(-c3ccc(O)c(O)c3)n2)C(=O)CN1CCC(F)(F)F [Compound 97],EC50,> 10 µM
COc1ccc(-c2nccc(C3=C(N)N(c4ccccc4Cl)CC3=O)n2)cc1OC [Compound 98],EC50,> 10 µM
COCCOc1cc(-c2cncc(C3=C(N)N(CC4CCCC4)CC3=O)n2)ccc1O [Compound 99],EC50,< 5 µM
COc1ccc(-c2cc(C3=C(N)N(c4ccccc4F)CC3=O)ccn2)cc1OC [Compound 100],EC50,> 10 µM
NC1=C(c2ccnc(-c3ccc(O)c(O)c3)c2)C(=O)CN1c1ccccc1F [Compound 101],EC50,> 10 µM
NC1=C(c2ccnc(-c3ccc(O)c(O)c3)c2)C(=O)CN1c1ccccc1Cl [Compound 102],EC50,> 10 µM
NC1=C(c2cncc(-c3ccc(O)c(OCCO)c3)n2)C(=O)CN1CC1CCCC1 [Compound 103],EC50,> 10 µM
NC1=C(c2cncc(-c3ccc(O)c(O)c3)n2)C(=O)CN1CC1CC(F)(F)C1 [Compound 104],EC50,5 to 10 µM
COc1ccc(-c2cc(C3=C(N)N(c4ccccc4Cl)CC3=O)ccn2)cc1OC [Compound 106],EC50,> 10 µM
CNCCOc1cc(-c2cncc(C3=C(N)N(CC4CCCC4)CC3=O)n2)ccc1O [Compound 107],EC50,< 5 µM
COc1ccc(-c2cc(C3=C(N)N(CC4CCCC4)CC3=O)ccn2)cc1OC [Compound 108],EC50,> 10 µM
NC1=C(c2ccnc(-c3ccc(O)c(O)c3)c2)C(=O)CN1CC1CCCC1 [Compound 109],EC50,> 10 µM
COc1cc(-c2ccnc(C3=C(N)N(CC4CCCC4)CC3=O)n2)ccc1O [Compound 110],EC50,< 5 µM
NC1=C(c2cncc(-c3ccc(O)c(OC4CC(O)C4)c3)n2)C(=O)CN1CC1CCCC1 (centres unmarked) [Compound 111],EC50,< 5 µM
NC1=C(c2cncc(-c3ccc(O)c(OC4COC4)c3)n2)C(=O)CN1CC1CCC1 [Compound 112],EC50,5 to 10 µM
NC1=C(c2cncc(-c3ccc(O)c(OC4CC(N)C4)c3)n2)C(=O)CN1CC1CCCC1 (centres unmarked) [Compound 113],EC50,> 10 µM
NC1=C(c2ccnc(-c3ccc(O)c(O)c3)n2)C(=O)CN1c1ccccc1Cl [Compound 114],EC50,< 5 µM
COCOc1ccc(-c2cncc(C3=C(N)N(C4CCCC4)CC3=O)n2)cc1OC1COC1 [Compound 115],EC50,> 10 µM
COCOc1ccc(-c2cncc(C3=C(N)N(CC4CCCC4)CC3=O)n2)cc1OC [Compound 116],EC50,< 5 µM
NC1=C(c2cncc(-c3ccc(O)c(OC4COC4)c3)n2)C(=O)CN1C1CCCC1 [Compound 117],EC50,5 to 10 µM
COC1CC(Oc2cc(-c3cncc(C4=C(N)N(CC5CCCC5)CC4=O)n3)ccc2O)C1 (centres unmarked) [Compound 118],EC50,> 10 µM
NC1=C(c2cncc(-c3ccc(O)c(O)c3)n2)C(=O)CN1c1cccnc1Cl [Compound 119],EC50,> 10 µM
NC1=C(c2cncc(-c3ccc(O)c(O)c3)n2)C(=O)CN1c1ncncc1Cl [Compound 120],EC50,> 10 µM
